Test results taken from US20180214393A1, “METHODS FOR TREATING CANCER” (RADIUS PHARMACEUTICALS, INC., priority 2015, published 2018).
“Also recorded” adds a separate entry of the source. Structures can show the parent of a compound that is named as a salt. Where two headings read alike, the source gives them in different places.

Columns and labels:
[1] = Phase 1 dose escalation study in healthy postmenopausal women, treatment related AEs, oral daily for 7 days; format: in vivo
Protocol: The subjects were 40-75 years old with BMI of 18.0-30 kg/m^2. Subjects having evidence of clinically relevant pathology, increased risk of stroke or of history venous thromboembolic events, or use of concomitant medication less than 14 days prior to admission to clinical research center (paracetamol allowed up to 3 days prior) were excluded.
The subjects were treated with placebo or at least one oral dose daily after a light breakfast for 7 days at dose levels of 200 mg, 500 mg, 750 mg and 1000 mg, respectively.

[2] = RAD1901 levels in plasma, tumor and brain of mice implanted with MCF7 cells (LC-MS/MS); format: in vivo; settings: for Kp at 40 days / concentration at 40 days: mouse, oral
Source text: A similar tumor to plasma ratio was also observed at lower dose levels where tumor concentrations were approximately 20-30 fold higher than in plasma.

[3] = system: patient-derived xenograft (PDx) models; assay: Tumor growth inhibition in PDx models treated with RAD1901 alone; format: in vivo, athymic nude mice; settings: PDx models with ER mutations and/or high Her2, RAD1901 60 mg/kg p.o. q.d. 60 days

Q: Which results are given for `CCNCCc1ccc(CN(CC)c2cc(OC)ccc2[C@@H]2CCc3cc(O)ccc3C2)cc1` [RAD1901, (6R)-6-(2-(N-(4-(2-(ethylamino)ethyl)benzyl)-N-ethylamino)-4-methoxyphenyl)-5,6,7,8-tetrahydronaphthalen-2-ol dihydrochloride]?
A: Oesophageal pain AE, % ([1]; 1000 mg Gr3): (14) %; dose limiting toxicities ([1]; 200-1000 mg, 7 days, dihydrochloride): No dose limiting toxicities were observed; also recorded: No dose limiting toxicites (DLT) were observed; Abdominal discomfort AE, % ([1]; Total Active Gr1): (9) %; Abdominal distension AE, % ([1]; Total Active Gr1): (11) %; Abdominal pain AE, % ([1]; Total Active Gr1): (16) %; Diarrhoea AE, % ([1]; Total Active Gr1): (14) %; Dizziness AE, % ([1]; Total Active Gr1): (11) %; Dyspepsia AE, % ([1]; Total Active Gr1): (30) %; Dysphagia AE, % ([1]; Total Active Gr1): (9) %; Flatulance AE, % ([1]; Total Active Gr1): (11) %; Headache AE, % ([1]; Total Active Gr1): (20) %; Hiccups AE, % ([1]; Total Active Gr1): (20) %; Hot flush AE, % ([1]; Total Active Gr1): (25) %; Myalgia AE, % ([1]; Total Active Gr1): (7) %; Nausea AE, % ([1]; Total Active Gr1): (32) %; Odynophagia AE, % ([1]; Total Active Gr1): (9) %; Oesophageal pain AE, % ([1]; Total Active Gr1): (7) %; Salivary hyper-secretion AE, % ([1]; Total Active Gr1): (18) %; Sensation of a foreign body AE, % ([1]; Total Active Gr1): (16) %; Vomiting AE, % ([1]; Total Active Gr1): (7) %; Abdominal discomfort AE, % ([1]; Total Active Gr2): (2) %; Abdominal distension AE, % ([1]; Total Active Gr2): (2) %; Abdominal pain AE, % ([1]; Total Active Gr2): (7) %; Diarrhoea AE, % ([1]; Total Active Gr2): (2) %; Dyspepsia AE, % ([1]; Total Active Gr2): (7) %; Dysphagia AE, % ([1]; Total Active Gr2): (7) %; Headache AE, % ([1]; Total Active Gr2): (2) %; Myalgia AE, % ([1]; Total Active Gr2): (5) %; Nausea AE, % ([1]; Total Active Gr2): (11) %; Odynophagia AE, % ([1]; Total Active Gr2): (5) %; Oesophageal pain AE, % ([1]; Total Active Gr2): (14) %; Vomiting AE, % ([1]; Total Active Gr2): (23) %; Oesophageal pain AE, % ([1]; Total Active Gr3): (2) %; Vomiting AE, % ([1]; Total Active Gr3): (2) %; Abdominal discomfort AE, % ([1]; Total TEAE All): (11) %; Abdominal distension AE, % ([1]; Total TEAE All): (14) %; Abdominal pain AE, % ([1]; Total TEAE All): (23) %; Diarrhoea AE, % ([1]; Total TEAE All): (16) %; Dizziness AE, % ([1]; Total TEAE All): (11) %; Dyspepsia AE, % ([1]; Total TEAE All): (36) %; Dysphagia AE, % ([1]; Total TEAE All): (16) %; Flatulance AE, % ([1]; Total TEAE All): (11) %; Headache AE, % ([1]; Total TEAE All): (23) %; Hiccups AE, % ([1]; Total TEAE All): (20) %; Hot flush AE, % ([1]; Total TEAE All): (25) %; Myalgia AE, % ([1]; Total TEAE All): (11) %; Nausea AE, % ([1]; Total TEAE All): (43) %; Odynophagia AE, % ([1]; Total TEAE All): (14) %; Oesophageal pain AE, % ([1]; Total TEAE All): (23) %; Salivary hyper-secretion AE, % ([1]; Total TEAE All): (18) %; Sensation of a foreign body AE, % ([1]; Total TEAE All): (16) %; Vomiting AE, % ([1]; Total TEAE All): (32) %; Brain ([2]; 0.3 mg/kg, 40 days): BLQ; Brain ([2]; 1 mg/kg, 40 days): BLQ; Kp at 40 days ([2]; Balb/C-Nude, tumor, lower dose levels, read-out: tumor concentrations higher than in plasma): 20 to 30; blood-brain barrier penetration ([2]; mice treated for 40 days): able to cross the blood-brain barrier; Kp at 40 days ([2]; brain, 3 mg/kg, 40 days, read-out: B/P Ratio): 0.78; Kp at 40 days ([2]; brain, 10 mg/kg, 40 days, read-out: B/P Ratio): 0.36; Kp at 40 days ([2]; brain, 30 mg/kg, 40 days, read-out: B/P Ratio): 0.53; Kp at 40 days ([2]; brain, 60 mg/kg, 40 days, read-out: B/P Ratio): 0.6; concentration at 40 days ([2]; brain, 3 mg/kg, 40 days, read-out: Brain): 7 ng/mL; concentration at 40 days ([2]; brain, 10 mg/kg, 40 days, read-out: Brain): 14 ng/mL; concentration at 40 days ([2]; brain, 30 mg/kg, 40 days, read-out: Brain): 72 ng/mL; concentration at 40 days ([2]; brain, 60 mg/kg, 40 days, read-out: Brain): 201 ng/mL; concentration at 40 days ([2]; plasma, 0.3 mg/kg, 40 days, read-out: Plasma): 2 ng/mL; concentration at 40 days ([2]; plasma, 1 mg/kg, 40 days, read-out: Plasma): 3 ng/mL; concentration at 40 days ([2]; plasma, 3 mg/kg, 40 days, read-out: Plasma): 9 ng/mL; concentration at 40 days ([2]; plasma, 10 mg/kg, 40 days, read-out: Plasma): 39 ng/mL; concentration at 40 days ([2]; plasma, 30 mg/kg, 40 days, read-out: Plasma): 137 ng/mL; concentration at 40 days ([2]; plasma, 60 mg/kg, 40 days, read-out: Plasma): 334 ng/mL; Kp at 40 days ([2]; tumor, 3 mg/kg, 40 days, read-out: T/P Ratio): 18.8; Kp at 40 days ([2]; tumor, 10 mg/kg, 40 days, read-out: T/P Ratio): 19.4; Kp at 40 days ([2]; tumor, 30 mg/kg, 40 days, read-out: T/P Ratio): 28.3; Kp at 40 days ([2]; tumor, 60 mg/kg, 40 days, read-out: T/P Ratio): 33.3; Kp at 40 days ([2]; tumor, 60 mg/kg, T/P ratio (RAD1901 level in tumor v. plasma), maximum): ≤ 35; concentration at 40 days ([2]; tumor, 0.3 mg/kg, 40 days, read-out: Tumor): 11 ng/mL; concentration at 40 days ([2]; tumor, 1 mg/kg, 40 days, read-out: Tumor): 45 ng/mL; concentration at 40 days ([2]; tumor, 3 mg/kg, 40 days, read-out: Tumor): 169 ng/mL; concentration at 40 days ([2]; tumor, 10 mg/kg, 40 days, read-out: Tumor): 757 ng/mL; concentration at 40 days ([2]; tumor, 30 mg/kg, 40 days, read-out: Tumor): 3880 ng/mL; concentration at 40 days ([2]; tumor, 60 mg/kg, 40 days, read-out: Tumor): 11100 ng/mL; tumor growth inhibition [3]: efficacious in inhibiting tumor growth
